Assay results from publication PMC11445910 (International Journal of Veterinary Science and Medicine, 2024).
Values after ≈ are worked out from the molar mass of the structure shown. Like-named read-outs stand apart in the source and are kept apart here.

Assays:
FMDV serotype A (NP05) [1] = assay: microbe, parasite or virus in culture; assay type: cell-based, Foot-and-mouth disease virus
FMDV serotype A (NP05) [2] = assay: microbe, parasite or virus in culture; assay type: cell-based; conditions: Foot-and-mouth disease virus, BHK-21, read-out: Post-viral entry EC50
FMDV serotype A (NP05) [3] = assay: microbe, parasite or virus in culture; assay type: cell-based; conditions: Foot-and-mouth disease virus, BHK-21, read-out: Prophylactic EC50
FMDV serotype A (NP05) [4] = assay type: cell-based, Foot-and-mouth disease virus
FMDV serotype A (NP05) [5] = assay: microbe, parasite or virus in culture; assay type: cell-based, Foot-and-mouth disease virus; remark: listed apart in the source
FMDV serotype A (NP05) [6] = assay type: cell-based, Foot-and-mouth disease virus; remark: listed apart in the source
FMDV serotype A (NP05) [7] = assay type: cell-based, Foot-and-mouth disease virus; remark: listed apart in the source
FMDV 3Dpol = assay type: cell-based, Foot-and-mouth disease virus
SARS-CoV-2 = conditions: read-out: EC50 against SARS-CoV-2; cited from earlier work
RdRp = conditions: read-out: Binding affinity (RdRp inhibition using surface plasmon resonance assay); cited from earlier work
HCoV-OC43 = conditions: read-out: EC50 against HCoV-OC43; cited from earlier work
HCoV-NL63 = conditions: read-out: EC50 against HCoV-NL63; cited from earlier work
MERS-CoV = conditions: read-out: EC50 against MERS-CoV; cited from earlier work
MHV-A59 = conditions: read-out: EC50 against MHV-A59; cited from earlier work
EBOV = conditions: read-out: IC50 (viral-like particle entry); cited from earlier work
ZIKV NS5 RNA polymerase = conditions: read-out: IC50 (NS5 polymerase inhibition); cited from earlier work
enterovirus (EV) A71 = conditions: read-out: EC50 against enterovirus (EV) A71; cited from earlier work
[8] = system: HIV reverse transcriptase; conditions: cited from earlier work
Influenza virus H1N1 = conditions: cited from earlier work
HBV = conditions: read-out: IC50 against HBV; cited from earlier work
FMDV serotype A = conditions: cited from earlier work
CHIKV = conditions: read-out: EC50 against CHIKV; cited from earlier work
[9] = system: papain-like protease 2 protein; conditions: read-out: IC50 (papain-like protease 2 protein inhibition); cited from earlier work
Influenza virus type A = conditions: cited from earlier work
RSV = conditions: cited from earlier work
[10] = Foot-and-mouth disease virus, BHK-21, read-out: Pre-viral entry EC50
[11] = Foot-and-mouth disease virus, BHK-21, read-out: Penetration EC50

CC[C@H]1CN2CCc3cc(OC)c(OC)cc3[C@@H]2C[C@@H]1C[C@H]1NCCc2cc(O)c(OC)cc21 [CPL, Cephaeline]
EC50 (FMDV serotype A (NP05) [1]; [10]): 100 ± 100 nM
EC50 (FMDV serotype A (NP05) [2]): 50 ± 130 nM
EC50 (FMDV serotype A (NP05) [3]): 230 ± 650 nM
Effect on viral attachment (binding of FMDV) (FMDV serotype A (NP05) [4]): neither CPL nor EMT impeded the binding of FMDV
EC50 (FMDV serotype A (NP05) [5]; [11]): 50 nM
% Virucidal effect (Virus titre reduction of log TCID50/ml), High dose (FMDV serotype A (NP05) [6]): 79.59%
% Virucidal effect (Virus titre reduction of log TCID50/ml), Low dose (FMDV serotype A (NP05) [6]): 68.35%
log viral titre after treatment, high dose (FMDV serotype A (NP05) [6]): 1.00
log viral titre after treatment, low dose (FMDV serotype A (NP05) [6]): 1.00
Viral load reduction (viral copy numbers) (FMDV serotype A (NP05) [7]): dose-dependent manner
Negative-stranded RNA production (FMDV 3Dpol): affected the production of negative-stranded RNA
EC50 (SARS-CoV-2): 12.3 nM
Kd (RdRp): 8900 nM

C[C@H]1[C@H]2CC[C@H]3[C@@H]4CC=C5C[C@@H](N(C)C)CC[C@]5(C)[C@H]4CC[C@]23CN1C [Conessine (CNS), Conessine]
EC50 (HCoV-OC43): 2340 nM
EC50 (HCoV-NL63): 10700 nM
EC50 (MERS-CoV): 4980 nM
EC50 (MHV-A59): 11500 nM

CC[C@H]1CN2CCc3cc(OC)c(OC)cc3[C@@H]2C[C@@H]1C[C@H]1NCCc2cc(OC)c(OC)cc21 [EMT, Emetine, reference compound]
EC50 (FMDV serotype A (NP05) [1]; [10]): 130 nM
EC50 (FMDV serotype A (NP05) [2]): 240 ± 630 nM
EC50 (FMDV serotype A (NP05) [3]): 640 ± 200 nM
Effect on viral attachment (binding of FMDV) (FMDV serotype A (NP05) [4]): neither CPL nor EMT impeded the binding of FMDV
EC50 (FMDV serotype A (NP05) [5]; [11]): 120 nM
% Virucidal effect (Virus titre reduction of log TCID50/ml), Low dose (FMDV serotype A (NP05) [6]): 32.28%
log viral titre after treatment, high dose (FMDV serotype A (NP05) [6]): 2.16
log viral titre after treatment, low dose (FMDV serotype A (NP05) [6]): 2.14
Viral load reduction (viral copy numbers) (FMDV serotype A (NP05) [7]): dose-dependent manner
Negative-stranded RNA production (FMDV 3Dpol): affected the production of negative-stranded RNA
EC50 (HCoV-OC43): 300 nM
EC50 (HCoV-NL63): 1430 nM
EC50 (MERS-CoV): 340 nM
EC50 (MHV-A59): 120 nM
EC50 (SARS-CoV-2): 7.71 nM
IC50 (EBOV): 10200 nM
IC50 (ZIKV NS5 RNA polymerase): 121 nM
EC50 (enterovirus (EV) A71): 40 nM
Reduction of HIV reverse transcriptase activity [8]: approximately 50%

C/C=C1/CN2[C@@H]3C[C@@]45c6ccccc6N[C@]4(O3)[C@@H]2C[C@@H]1[C@H]5C(=O)OC [Picrinine (PCN), Picrinine]
Reduction of haemagglutination titres (Influenza virus H1N1): Reduction of haemagglutination titres at 1/480; 12.5 mg/kg of Alstonia scholaris (L.) crude extract

CCOC(=O)/C=C/[C@H](C[C@@H]1CCNC1=O)NC(=O)[C@@H](CC(=O)[C@@H](NC(=O)c1cc(C)on1)C(C)C)Cc1ccc(F)cc1 [RPV, Rupintrivir]
EC50 (FMDV serotype A (NP05) [1]; read-out: Pre-viral entry EC50): 10400 ± 1020 nM
EC50 (FMDV serotype A (NP05) [2]): 3430 ± 540 nM
EC50 (FMDV serotype A (NP05) [5]; read-out: Penetration EC50): 2060 ± 310 nM

C[C@@H]1CC[C@@]2(NC1)O[C@H]1C[C@H]3[C@@H]4CC=C5C[C@@H](O[C@@H]6O[C@H](CO)[C@@H](O[C@@H]7O[C@@H](C)[C@H](O)[C@@H](O)[C@H]7O)[C@H](O)[C@H]6O[C@@H]6O[C@@H](C)[C@H](O)[C@@H](O)[C@H]6O)CC[C@]5(C)[C@H]4CC[C@]3(C)[C@H]1[C@@H]2C [Solamargine (SLG), Solamargine]
IC50 (HBV): 2170 nM

NC(=O)c1ncc[nH]c1=O [T-1105]
IC50 against FMDV serotype A (FMDV serotype A): 1.11 µg/mL (≈ 7.98 µM)
IC50 (FMDV serotype A; read-out: IC50 against FMDV serotype A): 7970 nM

C[C@H]1CC[C@]2(NC1)O[C@H]1C[C@H]3[C@@H]4CC[C@H]5C[C@@H](O)CC[C@]5(C)[C@H]4CC[C@]3(C)[C@H]1[C@@H]2C [Tomatidine (TMD), Tomatidine]
EC50 (CHIKV): 1300 nM

O=C1c2ccccc2-n2c1nc1ccccc1c2=O [Tryptanthrin (TTT), Tryptanthrin]
IC50 [9]: 60 nM

Strictosamide [Strictosamide (STM)]
IC50 against influenza virus type A (Influenza virus type A): IC50 of 25.68 µg/ml in MDCK cells IC50 of 12.50 µg/ml in Hep-2 cells
IC50 against RSV (RSV): IC50 of 25.68 µg/ml in MDCK cells IC50 of 12.50 µg/ml in Hep-2 cells
